Target: T1, Solute carrier family 2, facilitated glucose transporter member 2 (Homo sapiens, UniProt P11168)
T1 sequence (P11168 whole entry): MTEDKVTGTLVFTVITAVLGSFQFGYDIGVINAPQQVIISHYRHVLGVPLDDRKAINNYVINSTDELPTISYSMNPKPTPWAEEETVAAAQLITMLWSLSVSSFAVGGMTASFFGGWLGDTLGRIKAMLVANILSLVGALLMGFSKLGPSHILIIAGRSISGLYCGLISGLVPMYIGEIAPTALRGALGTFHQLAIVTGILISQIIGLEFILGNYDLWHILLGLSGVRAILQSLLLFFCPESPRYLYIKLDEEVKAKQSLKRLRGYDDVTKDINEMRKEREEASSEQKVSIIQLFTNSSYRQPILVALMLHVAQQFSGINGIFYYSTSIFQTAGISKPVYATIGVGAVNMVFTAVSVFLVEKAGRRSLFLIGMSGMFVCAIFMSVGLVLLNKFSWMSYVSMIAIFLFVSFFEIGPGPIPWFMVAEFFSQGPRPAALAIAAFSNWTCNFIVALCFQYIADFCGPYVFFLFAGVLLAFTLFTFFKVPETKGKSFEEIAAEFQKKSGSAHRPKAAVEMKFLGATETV
Assay: Inhibition of the Glucose Transporter (GLUT2, SLC2A2) as assessed by a FRET based flow cytometry assay using a genetically-encoded biosensor for measuring free glucose (FLII12Pglu-700uDelta6) in HEK293 JumpIN TRex SLC2A2 WT-OE cells (PubChem AID: 1794829)
Type: functional, cell-based

Row | SMILES | IC50 [µM] | EC50 [µM]
1 | O=C(Oc1cccc(F)c1OC(=O)c1cccc(O)c1)c1cccc(O)c1 | > 10 | 
2 | C=C1[C@@H](C)[C@H]2[C@H](Cc3ccccc3)NC(=O)[C@]23OC(=O)/C=C/[C@H](O)CCC[C@@H](C)C/C=C/[C@H]3[C@@H]1O [CYTOCHALASIN B] | > 10 | 
3 | OC[C@H]1OC(O)[C@H](O)[C@@H](O)[C@@H]1O (stereo partly drawn) [DEXTROSE] |  | 527
